Experimental data as given in US7893074B2, “2, 4-pyrimidinediamines useful in the treatment of neoplastic diseases, inflammatory and immune system disorders” (Novartis AG, priority 2003, dated 2011).
Like-named read-outs stand apart in the source and are kept apart here.

Experiments:
[1] = test system: Mouse mammary carcinoma 4T1 cells; assay: Anchorage-independent tumor cell growth assay; assay type: cell-based
Procedure: Cells are cultured for 2 h and inhibitors are added at various concentrations in a final concentration of 0.1% DMSO. After 48 h, cell growth is assayed with the cell counting kit-8 (Wako Pure Chemical), which uses a water soluble tetrazolium salt WST8. Twenty μL of the reagent is added into each well and cells are further cultured for 2 h. The optical density is measured at 450 nm.

FAK = FAK (Mus musculus, UniProt P34152); assay: Phos IC50 (phosphorylation); assay type: cell-based
[2] = target: Focal Adhesion Kinase (FAK) (Homo sapiens, UniProt Q05397); assay: FAK assay system (Focal Adhesion Kinase inhibition); assay type: biochemical
IGF-IR = IGF-IR (Homo sapiens, UniProt P08069); assay: Cellular Capture ELISA of IGF-I induced autophosphorylation of the IGF-IR; assay type: cell-based; details: read-out: IGF-1R IC50
Procedure: In this assay the activity of the compounds of the invention against Insulin-like growth factor I (IGF-I) induced autophosphorylation of the IGF-IR is determined.

IGF-IR, sequence (P08069 31-1367): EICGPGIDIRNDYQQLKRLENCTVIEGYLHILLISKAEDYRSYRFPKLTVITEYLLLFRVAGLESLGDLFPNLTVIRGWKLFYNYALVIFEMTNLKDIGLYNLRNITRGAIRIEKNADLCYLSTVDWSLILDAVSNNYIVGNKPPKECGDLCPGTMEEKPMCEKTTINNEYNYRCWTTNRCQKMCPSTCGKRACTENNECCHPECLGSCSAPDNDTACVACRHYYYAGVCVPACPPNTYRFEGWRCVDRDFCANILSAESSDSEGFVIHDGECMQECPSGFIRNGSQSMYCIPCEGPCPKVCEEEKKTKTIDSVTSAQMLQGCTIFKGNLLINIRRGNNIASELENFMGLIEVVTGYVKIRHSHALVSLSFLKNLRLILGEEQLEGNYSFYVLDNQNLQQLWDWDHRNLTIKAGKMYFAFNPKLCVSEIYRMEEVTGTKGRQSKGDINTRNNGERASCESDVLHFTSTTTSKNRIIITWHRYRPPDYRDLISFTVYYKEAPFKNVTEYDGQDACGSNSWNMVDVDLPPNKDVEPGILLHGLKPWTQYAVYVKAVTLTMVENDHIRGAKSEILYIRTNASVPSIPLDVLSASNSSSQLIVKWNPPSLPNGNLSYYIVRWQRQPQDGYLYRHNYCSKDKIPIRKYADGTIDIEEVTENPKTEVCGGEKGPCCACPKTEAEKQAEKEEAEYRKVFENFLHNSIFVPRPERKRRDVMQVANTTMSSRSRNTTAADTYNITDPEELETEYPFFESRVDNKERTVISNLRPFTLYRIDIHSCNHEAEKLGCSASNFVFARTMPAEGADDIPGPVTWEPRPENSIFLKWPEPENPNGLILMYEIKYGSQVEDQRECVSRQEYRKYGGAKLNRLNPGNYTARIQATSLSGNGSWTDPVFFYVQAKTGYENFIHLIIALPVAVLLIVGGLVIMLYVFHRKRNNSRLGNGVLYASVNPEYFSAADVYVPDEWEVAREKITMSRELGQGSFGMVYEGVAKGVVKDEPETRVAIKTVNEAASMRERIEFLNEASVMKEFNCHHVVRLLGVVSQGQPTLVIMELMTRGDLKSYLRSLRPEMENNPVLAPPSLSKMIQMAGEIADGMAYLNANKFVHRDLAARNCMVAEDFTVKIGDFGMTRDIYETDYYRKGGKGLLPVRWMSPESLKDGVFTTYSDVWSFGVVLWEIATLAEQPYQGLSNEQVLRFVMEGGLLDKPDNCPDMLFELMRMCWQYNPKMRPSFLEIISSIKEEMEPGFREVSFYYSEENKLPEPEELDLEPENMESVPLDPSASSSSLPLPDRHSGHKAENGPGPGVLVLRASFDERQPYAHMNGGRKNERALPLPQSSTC
Focal Adhesion Kinase (FAK), sequence (Q05397 384-706): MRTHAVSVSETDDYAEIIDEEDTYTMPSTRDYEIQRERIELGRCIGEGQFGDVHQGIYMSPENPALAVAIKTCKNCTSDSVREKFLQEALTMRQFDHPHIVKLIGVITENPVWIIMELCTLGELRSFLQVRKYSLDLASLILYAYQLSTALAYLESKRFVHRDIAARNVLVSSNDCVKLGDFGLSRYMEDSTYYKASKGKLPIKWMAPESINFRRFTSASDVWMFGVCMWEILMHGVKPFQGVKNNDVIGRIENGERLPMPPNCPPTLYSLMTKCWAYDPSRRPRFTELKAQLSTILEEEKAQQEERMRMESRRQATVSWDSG
FAK, sequence (P34152 2-1052): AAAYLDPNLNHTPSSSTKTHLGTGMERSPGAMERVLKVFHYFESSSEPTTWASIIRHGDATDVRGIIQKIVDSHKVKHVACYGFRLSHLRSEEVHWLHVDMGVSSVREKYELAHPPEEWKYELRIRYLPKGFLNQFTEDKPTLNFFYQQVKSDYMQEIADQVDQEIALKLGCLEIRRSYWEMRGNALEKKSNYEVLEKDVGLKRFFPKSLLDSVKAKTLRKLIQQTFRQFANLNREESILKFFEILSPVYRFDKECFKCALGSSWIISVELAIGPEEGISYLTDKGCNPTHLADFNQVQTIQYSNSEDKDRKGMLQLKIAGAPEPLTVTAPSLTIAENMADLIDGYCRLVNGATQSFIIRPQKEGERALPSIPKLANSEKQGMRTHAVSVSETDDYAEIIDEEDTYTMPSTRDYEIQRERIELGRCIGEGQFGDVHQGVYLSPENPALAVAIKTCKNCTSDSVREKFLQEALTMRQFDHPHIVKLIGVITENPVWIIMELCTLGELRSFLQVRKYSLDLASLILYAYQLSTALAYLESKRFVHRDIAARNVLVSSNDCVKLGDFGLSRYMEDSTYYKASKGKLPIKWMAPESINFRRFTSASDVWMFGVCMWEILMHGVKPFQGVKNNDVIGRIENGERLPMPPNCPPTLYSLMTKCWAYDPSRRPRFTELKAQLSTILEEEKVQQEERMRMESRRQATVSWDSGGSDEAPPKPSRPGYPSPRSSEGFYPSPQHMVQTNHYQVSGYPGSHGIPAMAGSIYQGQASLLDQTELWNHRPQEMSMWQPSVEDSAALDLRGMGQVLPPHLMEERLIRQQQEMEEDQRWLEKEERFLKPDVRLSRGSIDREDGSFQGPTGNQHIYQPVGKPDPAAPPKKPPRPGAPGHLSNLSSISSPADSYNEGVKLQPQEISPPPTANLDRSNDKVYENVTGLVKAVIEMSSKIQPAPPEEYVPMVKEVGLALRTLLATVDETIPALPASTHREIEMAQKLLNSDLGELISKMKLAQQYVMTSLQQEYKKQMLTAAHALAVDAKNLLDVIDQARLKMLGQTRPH

Compound	IC50 ([1]; Mus musculus, 4T1)	IC50 (FAK)	IC50 ([2]; read-out: FAK IC50)	IC50 [1]	IC50 (IGF-IR)	IC50 ([2]; FAK IC50)
CNS(=O)(=O)c1ccccc1Nc1nc(Nc2ccc(C)cc2OC)ncc1Br [Example 3-5]	2000 nM	170 nM	21 nM		> 10000 nM	
CNS(=O)(=O)c1ccccc1Nc1nc(Nc2cccc3cn[nH]c23)ncc1Br [Example 3-13]	600 nM				740 nM	58 nM
CNS(=O)(=O)c1ccccc1Nc1nc(Nc2cc(-c3ccncc3)ccc2C)ncc1Br [Example 3-54]		10 nM	0.9 nM		< 80 nM	
CNS(=O)(=O)c1ccccc1Nc1nc(Nc2ccc(-n3ccnc3C)cc2OC)ncc1Br [Example 3-83]	320 nM				680 nM	20 nM
CCNC1CCN(c2ccc(Nc3ncc(Cl)c(Nc4ccccc4S(=O)(=O)NC(C)C)n3)c(OC)c2)C1 (stereo not drawn) [Example 19-2]	380 nM				910 nM	1.6 nM
COc1cc(OCC2CCCN(C)C2)ccc1Nc1ncc(Cl)c(Nc2ccccc2S(=O)(=O)NC(C)C)n1 (stereo not drawn) [Example 19-3]	90 nM				640 nM	< 1 nM
COc1cc(N2CCC(N(C)C(C)=O)C2)ccc1Nc1ncc(Cl)c(Nc2ccccc2S(=O)(=O)NC(C)C)n1 (stereo not drawn) [Example 19-14]	1130 nM				440 nM	2.6 nM
CNS(=O)(=O)c1ccccc1Nc1nc(Nc2cc(N3CCC(N(C)C)C3)ccc2OC)ncc1Cl (stereo not drawn) [Example 20-20]			3.12 nM		100 nM	
CCCS(=O)(=O)c1ccccc1Nc1nc(Nc2ccc(N3CCC(C(N)=O)CC3)cc2OC)ncc1Cl [Example 26-5]	230 nM				1500 nM	2.1 nM
CCS(=O)(=O)c1ccccc1Nc1nc(Nc2ccc(N3CCC[C@@H](C(N)=O)C3)cc2OC)ncc1Cl [Example 27-8]	750 nM	600 nM	9.3 nM			
CCS(=O)(=O)c1ccccc1Nc1nc(Nc2ccc(N3CCC(N4CCN(C)CC4)CC3)cc2OC)ncc1Cl [Example 27-9]	360 nM	500 nM	4.2 nM			
COc1cc(N2CCOCC2)ccc1Nc1ncc(Cl)c(Nc2ccccc2S(=O)(=O)C(C)C)n1 [Example 28-3]	290 nM	70 nM	7.4 nM			
COc1cc(-n2cncn2)ccc1Nc1ncc(Cl)c(Nc2ccccc2S(=O)(=O)C(C)C)n1 [Example 28-4]	300 nM	300 nM	7.5 nM			
Cc1cc(N2CCOCC2)ccc1Nc1ncc(Cl)c(Nc2ccccc2S(=O)(=O)C(C)C)n1 [Example 28-6]	560 nM	600 nM	17 nM			
COc1cc(N2CCC(N3CCCCC3)CC2)ccc1Nc1ncc(Cl)c(Nc2ccccc2S(=O)(=O)C(C)C)n1 [Example 28-8]	370 nM	400 nM	4.6 nM			
COc1cc(N2CCC(N3CCCC3)CC2)ccc1Nc1ncc(Cl)c(Nc2ccccc2S(=O)(=O)C(C)C)n1 [Example 28-9]	360 nM	500 nM	3.1 nM			
COCC1CCN(c2ccc(Nc3ncc(Cl)c(Nc4ccccc4S(=O)(=O)C(C)C)n3)c(OC)c2)CC1 [Example 28-10]		3000 nM	20 nM	1850 nM		
COc1cc(N2CCN(C(C)=O)CC2)ccc1Nc1ncc(Cl)c(Nc2ccccc2S(=O)(=O)C(C)C)n1 [Example 28-11]		500 nM	4.2 nM	630 nM		
COc1cc(N2CCN(C(C)C)CC2)ccc1Nc1ncc(Cl)c(Nc2ccccc2S(=O)(=O)C(C)C)n1 [Example 28-14]	1440 nM	100 nM	3 nM			
COc1cc(N2CCC(C(N)=O)CC2)ccc1Nc1ncc(Cl)c(Nc2ccccc2S(=O)(=O)C(C)C)n1 [Example 28-15]	690 nM	500 nM	10 nM			
COc1cc(N2CCC(OC)C2)ccc1Nc1ncc(Cl)c(Nc2ccccc2S(=O)(=O)C(C)C)n1 (stereo not drawn) [Example 28-17]	1900 nM	160 nM	15 nM			
COc1cc(N2CCC(OC)CC2)ccc1Nc1ncc(Cl)c(Nc2ccccc2S(=O)(=O)C(C)C)n1 [Example 28-18]	2030 nM	> 10000 nM	9.1 nM			
CNC1CCN(c2ccc(Nc3ncc(Cl)c(Nc4ccccc4S(=O)(=O)C(C)C)n3)c(OC)c2)C1 (stereo not drawn) [Example 28-21]	230 nM	100 nM	1.3 nM			
COc1cc(N2CCC(N(C)C)C2)ccc1Nc1ncc(Cl)c(Nc2ccccc2S(=O)(=O)C(C)C)n1 (stereo not drawn) [Example 28-22]	300 nM	100 nM	1.3 nM			
COc1cc(N2CCN(C)C(=O)C2)ccc1Nc1ncc(Cl)c(Nc2ccccc2S(=O)(=O)C(C)C)n1 [Example 28-23]	280 nM	500 nM	5.9 nM			
COc1cc(N2CCC(N3CCNCC3)CC2)ccc1Nc1ncc(Cl)c(Nc2ccccc2S(=O)(=O)C(C)C)n1 [Example 28-25]	130 nM	40 nM	3.9 nM			
COc1cc(N2CCN3COCC[C@H]3C2)ccc1Nc1ncc(Cl)c(Nc2ccccc2S(=O)(=O)C(C)C)n1 [Example 28-26]	570 nM	200 nM	6.6 nM			
COc1cc(OC)c(OC)cc1Nc1ncc(Cl)c(Nc2ccccc2S(=O)(=O)C(C)C)n1 [Example 28-30]	110 nM	900 nM	2.3 nM			
CC(C)S(=O)(=O)c1ccccc1Nc1nc(Nc2cccc3c2OCC3)ncc1Cl [Example 28-31]	1060 nM	60 nM	7.4 nM			
COc1cc(N2CCOCC2)ccc1Nc1ncc(Cl)c(Nc2ccccc2S(C)(=O)=O)n1 [Example 31-2]	290 nM				420 nM	31 nM

Now from value to molecule, other results behind:

IC50 ([1]; Mus musculus, 4T1)	IC50 (FAK)	IC50 ([2]; read-out: FAK IC50)	IC50 [1]	Compound	IC50 (IGF-IR)	IC50 ([2]; FAK IC50)
1100 nM	700 nM	3.3 nM		CCC(CC)S(=O)(=O)c1ccccc1Nc1nc(Nc2ccc(N3CCC(N4CCCCC4)CC3)cc2OC)ncc1Cl [Example 29-2]		
990 nM	100 nM	5.6 nM		CCC(CC)S(=O)(=O)c1ccccc1Nc1nc(Nc2ccc(N3CCN(C(C)=O)CC3)cc2OC)ncc1Cl [Example 29-3]		
890 nM	200 nM	22 nM		COc1cc(N2CCOCC2)ccc1Nc1ncc(Cl)c(Nc2ccccc2S(=O)(=O)C2CC2)n1 [Example 30-1]		
470 nM	200 nM	12 nM		COc1cc(N2CCN(C(C)=O)CC2)ccc1Nc1ncc(Cl)c(Nc2ccccc2S(=O)(=O)C2CC2)n1 [Example 30-2]		
680 nM	500 nM	19 nM		COc1cc(N2CCCC(C(N)=O)C2)ccc1Nc1ncc(Cl)c(Nc2ccccc2S(=O)(=O)C2CC2)n1 (stereo not drawn) [Example 30-3]		
990 nM	300 nM	25 nM		COc1cc(-n2cncn2)ccc1Nc1ncc(Cl)c(Nc2ccccc2S(=O)(=O)C2CC2)n1 [Example 30-4]		
290 nM	2000 nM	8.5 nM		COc1cc(CN2CCN(C)CC2)ccc1Nc1ncc(Cl)c(Nc2ccccc2S(=O)(=O)C2CC2)n1 [Example 30-5]		
1030 nM	1000 nM	15 nM		COc1cc(N2CCC[C@@H](C(N)=O)C2)ccc1Nc1ncc(Cl)c(Nc2ccccc2S(=O)(=O)C2CC2)n1 [Example 30-6]		
470 nM	600 nM	8.8 nM		COc1cc(N2CCC(N3CCN(C)CC3)CC2)ccc1Nc1ncc(Cl)c(Nc2ccccc2S(=O)(=O)C2CC2)n1 [Example 30-7]		
1600 nM	> 10000 nM	30 nM		COc1cc(F)ccc1Nc1ncc(Cl)c(Nc2ccccc2S(C)(=O)=O)n1 [Example 31-1]		
250 nM	80 nM	2.5 nM		COc1cc(N2CCN(C(C)=O)CC2)ccc1Nc1ncc(Cl)c(Nc2ccccc2S(=O)(=O)C2CCCC2)n1 [Example 33-1]		
1170 nM	80 nM	11 nM		COc1cc(N2CCOCC2)ccc1Nc1ncc(Cl)c(Nc2ccccc2S(=O)(=O)C2CCCCC2)n1 [Example 34-2]		
2250 nM	190 nM	33 nM		CCCCCS(=O)(=O)c1ccccc1Nc1nc(Nc2ccc(N3CCOCC3)cc2OC)ncc1Cl [Example 34-3]		
1220 nM	> 10000 nM	13 nM		COc1cc(N2CCOCC2)ccc1Nc1ncc(Cl)c(Nc2ccccc2S(=O)(=O)CCC(C)C)n1 [Example 34-4]		
5100 nM	360 nM	51 nM		COc1cc(N2CCOCC2)ccc1Nc1ncc(Cl)c(Nc2ccccc2S(=O)(=O)Cc2ccccc2)n1 [Example 34-5]		
3000 nM	> 10000 nM	14 nM		COc1cc(N2CCOCC2)ccc1Nc1ncc(Cl)c(Nc2ccccc2S(=O)(=O)c2ccccc2)n1 [Example 34-6]		
2700 nM	> 10000 nM	27 nM		CCC[S+]([O-])c1ccccc1Nc1nc(Nc2ccc(F)cc2OC)ncc1Cl (stereo not drawn) [Example 34-7]		
1900 nM	> 10000 nM	8.7 nM		CCCS(=O)(=O)c1cc(N2CCN(C)CC2)ccc1Nc1nc(Nc2ccc(F)cc2OC)ncc1Cl [Example 34-8]		
1430 nM	> 10000 nM	6.8 nM		CNC(=O)c1cc(N2CCN(C)CC2)ccc1Nc1nc(Nc2ccc(N3CCOCC3)cc2OC)ncc1Cl [Example 35-1]		
230 nM	700 nM	6.1 nM		CNC(=O)c1cc(N2CCN(C)CC2)ccc1Nc1nc(Nc2cccc3c2ccn3C)ncc1Cl [Example 35-2]		
